Values joined by “and” are separate entries in the source; they are usually repeats but may differ in a detail not shown here. Identical values can stand only once.
Legend:
Assay type in all cases: in vivo
[1] = system: Yellow nutsedge (Cypersus esculentus); assay: Field trial, post-emergent control of established Yellow nutsedge (Example 1); details: 10 DAT, pyridate 24 fluid ounces/acre, sulfentrazone 12 fluid ounces/acre, visual estimate vs untreated plot, non-replicated
Protocol: Field trials were conducted to evaluate the efficacy of pyridate herbicide alone and in combination with sulfentrazone when applied in a post-emergent manner to established Yellow nutsedge (Cypersus esculentus). The field trial was conducted alongside of a gravel path on the Corbett Farm located Batten Pond Road in Selma, NC 27576. Yellow nutsedge was established and ranged from 8-12 inches in height. The distribution of weeds in the plots was uniform throughout this location.
Individual treatments were applied on a 1×4 meter squared plot area. The experimental design was a non-replicated linear strip plot. The applications were made with a RYOBI electric 4 gallon backpack sprayer equipped with 11004 nozzles with a spray pressure of 35 psi calibrated to deliver about 40 gallons per acre spray volume, respectively. All applications were applied on the same day. The wind speed was less than 10 mph at time of application.
Pyridate used in this trial was a five pound active ingredient per gallon emulsifiable concentrate (EC) marketed by Belchim Crop Protection as Tough® 5EC Herbicide. The sulfentrazone used in this trial was Sulfentrazone 4L Select marketed by Prime Source, a division of Albaugh, LLC. […]

[2] = system: green Kyllinga (Kyllinga brevifolia); assay: Post-emergent control of green Kyllinga, Hampstead, North Carolina (Example 3); details: 35 DAT, rates per Table 3
Protocol: A study was conducted to evaluate and compare the post-emergent control of green Kyllinga (Kyllinga brevifolia) versus the industry standards of Sulfentrazone Select or Halosulfuron 75 WDG. The study was conducted in Hampstead, North Carolina at Old Pointe Country Club. A randomized block design with four replications was utilized. Treatments were applied with a CO2 pressurized spray system. Irrigations were suspended for at least 24 hours after application.

Yellow Nutsedge = assay: Post-emergent control of Yellow Nutsedge, Hampstead, North Carolina (Example 4); details: 35 DAT, rates per Table 5
Protocol: A study was conducted to evaluate and compare the post-emergent control of Yellow Nutsedge versus the industry standards of Sulfentrazone Select or Halosulfuron 75 WDG. The study was conducted in Hampstead, North Carolina at Old Pointe Country Club. A randomized block design with four replications was utilized. Treatments were applied with a CO2 pressurized spray system. Irrigations were suspended for at least 24 hours after application. [table]

CCCCCCCCSC(=O)Oc1cc(Cl)nnc1-c1ccccc1 [Pyridate, pyridate]
Percentage (%) Control 10 Days after Treatment (DAT) [1]: approximately 20% and 20%

Cc1nn(-c2cc(NS(C)(=O)=O)c(Cl)cc2Cl)c(=O)n1C(F)F [Sulfentrazone, sulfentrazone]
Percentage Control [2]: 43.3% | Percentage (%) Control 10 Days after Treatment (DAT) [1]: approximately 70% and 70% | Percentage Control (Yellow Nutsedge): 60%

Source: patent US20240260578A1, “HERBICIDAL COMPOSITIONS AND RELATED METHODS” (BELCHIM Crop Protection USA LLC, priority 2023, published 2024)
